The nature of series [1]: Solubility of tested amine in heptane phase by gas chromatography (toluene internal standard). The following applies: GC peak area of tested amine in neat heptane phase; heptane 10 g, toluene 0.1 g, amine 2.5 g, mixed at 20° C. for 1 hour, decanted 15 minutes; average of three injections.
Protocol: A solution of heptane (10 g), toluene (0.1 g) and the tested amine (2.5 g) are mixed at 20° C. for 1 hours. The mixture is decanted for 15 minutes and the neat heptane phase is analyzed by gas chromatography using toluene as internal standard. The injection is repeated three times and peak areas of tested amine are averaged.
The nature of series [2]: pKa by automated Mettler Toledo titration. The format is physicochemical. The settings on record: aqueous amine solution; 50 weight % aqueous amine solutions titrated with 0.5 N hydrochloric acid.

In turn, `NCC(O)CO` (stereo not drawn) [APD] came in with an area counts in series [1] of 0 counts. Also, the pKa in series [2] was 9.3.
For the compound `CN(CCO)CC(O)CO` (stereo not drawn) [HEMAPD], in series [1], the area counts turned out to be 290 counts. Further, in series [2], the pKa was 8.5.
For the compound `CNCC(O)CO` (stereo not drawn) [MAPD], in series [1], the area counts came to 176 counts. This compound also came in with a pKa in series [2] of 9.7.

Values taken from US9732298B2, “Process for the treatment of liquefied hydrocarbon gas using 3-(amino) propane-1,2-diol compounds” (Dow Global Technologies LLC, priority 2012, dated 2017).
